For one test, the target named is T1, Human Calpain 1/NS1 (Homo sapiens, UniProt P07384).
T1 sequence (P07384 1-714): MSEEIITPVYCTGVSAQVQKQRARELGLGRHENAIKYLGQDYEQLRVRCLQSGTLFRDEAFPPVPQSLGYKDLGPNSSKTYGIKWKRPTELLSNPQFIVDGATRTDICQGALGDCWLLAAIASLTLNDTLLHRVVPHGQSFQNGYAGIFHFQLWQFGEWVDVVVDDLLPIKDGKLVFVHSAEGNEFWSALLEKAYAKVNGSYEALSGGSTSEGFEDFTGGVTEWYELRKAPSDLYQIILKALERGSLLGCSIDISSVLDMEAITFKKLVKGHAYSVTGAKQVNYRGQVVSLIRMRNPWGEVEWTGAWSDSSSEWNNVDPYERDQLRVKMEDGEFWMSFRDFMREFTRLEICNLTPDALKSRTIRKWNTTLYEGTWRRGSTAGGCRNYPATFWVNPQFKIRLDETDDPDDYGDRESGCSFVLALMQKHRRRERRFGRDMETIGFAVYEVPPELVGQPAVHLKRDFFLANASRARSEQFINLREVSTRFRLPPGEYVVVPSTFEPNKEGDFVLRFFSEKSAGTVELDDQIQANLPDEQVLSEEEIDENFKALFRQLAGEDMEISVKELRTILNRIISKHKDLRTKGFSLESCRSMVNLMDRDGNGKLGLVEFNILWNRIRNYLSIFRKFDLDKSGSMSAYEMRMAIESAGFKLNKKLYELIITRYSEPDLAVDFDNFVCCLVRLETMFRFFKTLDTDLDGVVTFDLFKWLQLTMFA
T1 sequence (P04632 1-268 partner): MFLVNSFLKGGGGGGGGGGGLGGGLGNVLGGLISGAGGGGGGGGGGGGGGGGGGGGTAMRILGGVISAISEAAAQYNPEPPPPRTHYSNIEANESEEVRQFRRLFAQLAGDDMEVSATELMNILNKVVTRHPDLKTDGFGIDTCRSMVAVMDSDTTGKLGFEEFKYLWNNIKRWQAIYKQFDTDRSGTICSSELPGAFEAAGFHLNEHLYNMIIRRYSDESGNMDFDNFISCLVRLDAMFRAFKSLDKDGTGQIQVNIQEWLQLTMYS
In words: Biochemical inhibition of calpain 1, continuous fluorescence (FRET substrate) assay. The following applies: mean; read-out: Human Calpain 1/NS1 IC50 (nM)_MEAN. Here is the method:
(§1) Calpain 1, 2, and 9 activity and inhibition thereof are assessed by means of a continuous fluorescence assay. The SensoLyte 520 Calpain substrate (Anaspec Inc) is optimized for detecting calpain activity. This substrate contains a novel internally quenched 5-FAM/QXL™ 520 FRET pair. Calpains 1, 2, and 9 cleave the FRET substrate into two separate fragments resulting in an increase of 5-FAM fluorescence that is proportional to calpain activity.
(§2) Assays are typically setup in black 384-well plates using automated liquid handling as follows. Calpain assay base buffer typically contains 50 mM Tris, pH 7.5, 100 mM NaCl and 1 mM DTT. Inhibitors are serially diluted in DMSO and used to setup 2× mixtures with calpains in the aforementioned buffer. After incubation at ambient temperature (25 C), the reaction is initiated by adding a 2× mix of the fluorescent peptide substrate and CaCl2 (required for in-situ calpain activation) in the same buffer. Reaction progress curve data are typically collected for 10 min using excitation/emission wavelengths of 490 nm/520 nm on SpectraMax i3x or the FLIPR-Tetra plate readers (Molecular Devices Inc). Reaction rates were calculated from progress curve slopes typically over 1-5 min. Dose response curves (rate vs. log inhibitor concentration) were typically fit to a 4-parameter logistic function to extract IC50 values.

A further test deals with T2, Human Calpain 2/NS1 (Homo sapiens, UniProt P17655).
T2 sequence (P17655 1-700): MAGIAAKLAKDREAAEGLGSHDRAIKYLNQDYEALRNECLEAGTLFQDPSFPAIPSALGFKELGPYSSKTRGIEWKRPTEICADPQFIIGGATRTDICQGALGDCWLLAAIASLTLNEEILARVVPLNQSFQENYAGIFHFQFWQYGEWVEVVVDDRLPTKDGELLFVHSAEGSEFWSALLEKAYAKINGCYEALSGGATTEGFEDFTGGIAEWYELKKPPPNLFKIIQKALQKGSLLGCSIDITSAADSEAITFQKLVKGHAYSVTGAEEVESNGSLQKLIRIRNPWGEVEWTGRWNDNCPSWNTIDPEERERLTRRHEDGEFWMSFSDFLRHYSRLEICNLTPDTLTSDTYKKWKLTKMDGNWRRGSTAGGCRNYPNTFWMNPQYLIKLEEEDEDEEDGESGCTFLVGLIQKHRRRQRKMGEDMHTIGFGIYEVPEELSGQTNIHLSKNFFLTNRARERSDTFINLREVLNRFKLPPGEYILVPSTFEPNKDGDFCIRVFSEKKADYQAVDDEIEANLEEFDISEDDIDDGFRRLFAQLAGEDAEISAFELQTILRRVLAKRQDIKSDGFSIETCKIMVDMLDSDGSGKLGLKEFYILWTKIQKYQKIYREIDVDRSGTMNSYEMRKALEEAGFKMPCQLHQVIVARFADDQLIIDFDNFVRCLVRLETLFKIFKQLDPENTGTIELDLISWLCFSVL
T2 sequence (P04632 1-268 partner): T1 sequence (P04632 1-268 partner)
The test can be described thus: Biochemical inhibition of calpain 2, continuous fluorescence (FRET substrate) assay. The following applies: mean; read-out: Human Calpain 2/NS1 1C50 [sic] (nM)_MEAN. As to the method:
as §1, §2

The next test has as its target T3, Human Calpain 9/NS1 (Homo sapiens, UniProt O14815).
T3 sequence (O14815 1-690): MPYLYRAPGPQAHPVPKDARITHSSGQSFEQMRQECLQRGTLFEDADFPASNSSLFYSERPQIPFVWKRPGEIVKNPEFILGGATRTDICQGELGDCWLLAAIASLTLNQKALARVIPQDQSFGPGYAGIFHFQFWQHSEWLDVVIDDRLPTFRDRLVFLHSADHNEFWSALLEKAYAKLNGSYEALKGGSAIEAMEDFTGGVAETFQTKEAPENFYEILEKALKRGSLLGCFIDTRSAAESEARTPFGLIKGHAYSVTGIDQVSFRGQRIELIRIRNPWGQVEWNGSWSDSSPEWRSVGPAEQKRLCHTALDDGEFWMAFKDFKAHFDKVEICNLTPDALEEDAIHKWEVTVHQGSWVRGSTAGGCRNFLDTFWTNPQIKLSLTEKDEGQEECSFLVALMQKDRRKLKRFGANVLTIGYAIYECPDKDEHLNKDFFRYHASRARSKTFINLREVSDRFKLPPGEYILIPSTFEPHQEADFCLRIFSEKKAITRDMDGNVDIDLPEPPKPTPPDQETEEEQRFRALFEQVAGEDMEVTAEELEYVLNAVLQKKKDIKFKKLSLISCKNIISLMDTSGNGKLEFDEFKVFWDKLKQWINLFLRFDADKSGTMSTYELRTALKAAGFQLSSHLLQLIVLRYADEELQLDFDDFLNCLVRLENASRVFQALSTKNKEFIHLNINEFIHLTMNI
T3 sequence (P04632 1-268 partner): T1 sequence (P04632 1-268 partner)
In words: Biochemical inhibition of calpain 9, continuous fluorescence (FRET substrate) assay. Particulars: mean; read-out: Human Calpain 9/NS1 IC50 (nM)_MEAN. Here is the method: as §1, §2

Test [1] relates to calpain activity in SH-SY5Y cells. The test can be described thus: SH-SY5Y cellular calpain activity, Suc-LLVY-AMC fluorescence assay. The test is classed as cell-based. The following applies: Suc-LLVY-AMC substrate. Here is the method: Calpain activity in SH-SY5Y cells and inhibition thereof were assessed by means of a homogeneous, fluorescence assay that uses the cell-permeable and pro-fluorescent calpain substrate Suc-LLVY-AMC (Sigma-Aldrich Inc). Upon intracellular calpain cleavage of Suc-LLVY-AMC, fluorescent amino-methyl-coumarin (AMC) is released into the media resulting in a continuous increase in fluorescence signal that is proportional to intra-cellular calpain activity.
Assays were typically setup by seeding SH-SY5Y cells in black 384-well plates at 40 k/per well in RPMI-1640 containing 1% serum followed by 37 C overnight incubation. Next morning, cells were pre-incubated for 30 min with serially diluted compounds followed by addition of 100 uM of Suc-LLVY-AMC substrate. The continuous increase in AMC fluorescence is monitored using a FLIPR, Tetra plate reader (Molecular Devices Inc) and slopes measured to report calpain activity. Dose response curves (slopes vs. log inhibitor concentration) were typically fit to a 4-parameter logistic function to extract IC50 values.

Where only a bound is given, the exact number is not on record here.

`COc1cccc(OC)c1C(=O)N[C@@H](Cc1ccccc1)C(=O)C(N)=O` [Compound 18, (S)—N-(4-AMINO-3,4-DIOXO-1-PHENYLBUTAN-2-YL)-2,6-DIMETHOXYBENZAMIDE]: the IC50 on Human Calpain 1/NS1 was above 10000 nM; on Human Calpain 2/NS1, above 10000 nM; on Human Calpain 9/NS1, 3000 to 10000 nM; in test [1], above 25 µM.

For the compound `NC(=O)C(=O)[C@H](Cc1ccccc1)NC(=O)c1c(Cl)cccc1-c1ccccc1` [Compound 21, (S)—N-(4-AMINO-3,4-DIOXO-1-PHENYLBUTAN-2-YL)-3-CHLORO-[1,1′-BIPHENYL]-2-CARBOXAMIDE], the IC50 at Human Calpain 1/NS1 is below 3000 nM; at Human Calpain 2/NS1, below 3000 nM; on Human Calpain 9/NS1, below 3000 nM; in test [1] it was above 25 µM.

For the compound `COc1ccc(Cl)cc1C(=O)N[C@@H](Cc1ccccc1)C(=O)C(N)=O` [Compound 17, (S)—N-(4-AMINO-3,4-DIOXO-1-PHENYLBUTAN-2-YL)-5-CHLORO-2-METHOXYBENZAMIDE], the IC50 on Human Calpain 1/NS1 is below 3000 nM; on Human Calpain 2/NS1 it was below 3000 nM; on Human Calpain 9/NS1, below 3000 nM; in test [1] it was below 10 µM.

Consider `NC(=O)C(=O)[C@H](Cc1ccccc1)NC(=O)c1c(Cl)cccc1C(F)(F)F` [Compound 19, (S)—N-(4-AMINO-3,4-DIOXO-1-PHENYLBUTAN-2-YL)-2-CHLORO-6-(TRIFLUOROMETHYL)BENZAMIDE], for which the IC50 was below 3000 nM on Human Calpain 1/NS1, below 3000 nM at Human Calpain 2/NS1, below 3000 nM at Human Calpain 9/NS1 and above 25 µM in test [1].

As to `NC(=O)C(=O)[C@H](Cc1ccccc1)NC(=O)c1ccc(F)cc1` [Compound 4, (S)—N-(4-AMINO-3,4-DIOXO-1-PHENYLBUTAN-2-YL)-4-FLUOROBENZAMIDE], the IC50 at Human Calpain 1/NS1 was above 10000 nM; on Human Calpain 2/NS1 it was 3000 to 10000 nM; on Human Calpain 9/NS1, 3000 to 10000 nM; in test [1] it was 10 to 25 µM.

For the compound `NC(=O)C(=O)C(Cc1ccccc1)NC(=O)n1c2ccccc2c2ccccc21` (stereo not shown) [Compound 8, N-(4-AMINO-3,4-DIOXO-1-PHENYLBUTAN-2-YL)-9H-CARBAZOLE-9-CARBOXAMIDE], the IC50 at Human Calpain 1/NS1 was 3000 to 10000 nM; at Human Calpain 2/NS1 it was above 10000 nM; on Human Calpain 9/NS1, above 10000 nM; in test [1], above 25 µM.

Regarding `NC(=O)C(=O)C(Cc1ccccc1)NC(=O)c1cccc(F)c1` (stereo not shown) [Compound 25, N-(4-AMINO-3,4-DIOXO-1-PHENYLBUTAN-2-YL)-3-FLUOROBENZAMIDE], the IC50 was below 3000 nM on Human Calpain 1/NS1, below 3000 nM on Human Calpain 2/NS1, below 3000 nM at Human Calpain 9/NS1 and below 10 µM in test [1].

In the case of `O=C(NC1CC1)C(=O)[C@H](Cc1ccccc1)NC(=O)c1c(Cl)cccc1Cl` [Compound 2, (S)-2,6-DICHLORO-N-(4-(CYCLOPROPYLAMINO)-3,4-DIOXO-1-PHENYLBUTAN-2-YL)BENZAMIDE], the IC50 was below 3000 nM at Human Calpain 1/NS1, below 3000 nM on Human Calpain 2/NS1, below 3000 nM at Human Calpain 9/NS1 and below 10 µM in test [1].

For the compound `NC(=O)C(=O)[C@H](Cc1ccccc1)NC(=O)c1c(C(F)(F)F)cccc1C(F)(F)F` [Compound 20, (S)—N-(4-AMINO-3,4-DIOXO-1-PHENYLBUTAN-2-YL)-2,6-BIS(TRIFLUOROMETHYL)BENZAMIDE], the IC50 on Human Calpain 1/NS1 was below 3000 nM; on Human Calpain 2/NS1 it was 3000 to 10000 nM; at Human Calpain 9/NS1, below 3000 nM; in test [1], 10 to 25 µM.

For the compound `NC(=O)C(=O)[C@H](Cc1ccccc1)NC(=O)c1ccc(-c2ccccc2)cc1` [Compound 23, (S)—N-(4-AMINO-3,4-DIOXO-1-PHENYLBUTAN-2-YL)-[1,1′-BIPHENYL]-4-CARBOXAMIDE], the IC50 at Human Calpain 1/NS1 is below 3000 nM; on Human Calpain 2/NS1, above 10000 nM; on Human Calpain 9/NS1 it was above 10000 nM; in test [1], below 10 µM.

Consider `Cc1cccc(C(=O)NC(Cc2ccccc2)C(=O)C(N)=O)c1C` (stereo not shown) [Compound 26, N-(4-AMINO-3,4-DIOXO-1-PHENYLBUTAN-2-YL)-2,3-DIMETHYLBENZAMIDE], for which the IC50 on Human Calpain 1/NS1 was below 3000 nM; at Human Calpain 2/NS1 it was below 3000 nM; at Human Calpain 9/NS1 it was below 3000 nM; in test [1], below 10 µM.

`NC(=O)C(=O)[C@H](Cc1ccccc1)NC(=O)c1ccccc1Br` [Compound 36, (S)—N-(4-AMINO-3,4-DIOXO-1-PHENYLBUTAN-2-YL)-2-BROMOBENZAMIDE]: the IC50 on Human Calpain 1/NS1 was below 3000 nM; on Human Calpain 2/NS1, below 3000 nM; on Human Calpain 9/NS1, below 3000 nM; in test [1], below 10 µM.

For the compound `NC(=O)C(=O)C(Cc1ccccc1)NC(=O)C1c2ccccc2-c2ccccc21` (stereo not shown) [Compound 10, N-(4-AMINO-3,4-DIOXO-1-PHENYLBUTAN-2-YL)-9H-FLUORENE-9-CARBOXAMIDE], the IC50 is above 10000 nM at Human Calpain 1/NS1, 3000 to 10000 nM on Human Calpain 2/NS1, above 10000 nM at Human Calpain 9/NS1 and 10 to 25 µM in test [1].

Values taken from patent US20210347727A1 (BLADE THERAPEUTICS, INC., priority 2017, published 2021).
